“And” between values parts separate entries of the source, which are not always exact repeats. Equal values may be shown once.
Legend:
HPSE [1] = biological target: T1, HPSE (Homo sapiens, UniProt Q9Y251); assay: colorimetric fondaparinux cleavage assay; type: biochemical; conditions: 200 ng/mL HPSE, 100 µM fondaparinux, pH 5.0, 37°C, 18 h, n = 2; read-out: IC50, HPSE-mediated fondaparinux cleavage
T1 sequence (Q9Y251 158-543 limits assumed): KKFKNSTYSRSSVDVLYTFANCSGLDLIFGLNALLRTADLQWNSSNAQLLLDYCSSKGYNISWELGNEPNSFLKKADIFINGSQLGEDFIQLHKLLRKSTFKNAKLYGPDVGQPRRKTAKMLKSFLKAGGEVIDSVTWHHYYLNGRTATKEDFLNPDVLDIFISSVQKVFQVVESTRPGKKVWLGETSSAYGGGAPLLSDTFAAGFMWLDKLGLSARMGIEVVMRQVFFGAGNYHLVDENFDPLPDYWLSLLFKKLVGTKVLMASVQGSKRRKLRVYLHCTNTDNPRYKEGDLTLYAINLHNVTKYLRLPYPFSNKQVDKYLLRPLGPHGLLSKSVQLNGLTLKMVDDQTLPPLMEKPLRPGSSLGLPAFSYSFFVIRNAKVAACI
T1 sequence (Q9Y251 36-109 limits assumed): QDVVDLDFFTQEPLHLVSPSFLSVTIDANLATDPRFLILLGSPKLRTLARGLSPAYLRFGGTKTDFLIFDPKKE
Description: We next investigated the ability of our inhibitors to abrogate HPSE processing of its native oligosaccharide substrates, using a colorimetric assay that detects cleavage of the synthetic HS pentasaccharide fondaparinux ([49]). […]
Fondaparinux cleavage was performed essentially as previously described (9). Briefly, assays were carried out in 96 well plates (Nunc) pretreated with 4% BSA in TBS-T (20 mM Tris pH 7.4, […]
100 µL reactions were set up in 40 mM NaOAc pH 5.0 buffer, containing final concentrations of 200 ng/mL HPSE, 100 µM Fondaparinux (Arixtra) and specified concentrations of inhibitors.
Reactions were incubated at 37°C for 18 h, then quenched with 100 µL 0.1 M NaOH supplemented with 1.7 mM WST-1 tetrazolium salt, and incubated at 60°C for 1 h. Absorbance at 584 nm was read using an ELISA plate reader (BIO-TEK Instruments). All reactions were carried out in technical duplicate. Data were plotted and analyzed using Sigmaplot (Systat). […]

HPSE [2] = biological target: T1, HPSE; assay: H35SPG basement membrane (ECM) digest by recombinant HPSE; type: biochemical
From the text: Finally, we assessed our inhibitors against HPSE-mediated degradation of bona fide HSPGs in an ECM environment. Cultured bovine corneal endothelial cells secrete a subendothelial basement membrane material rich in proteoglycans, which can be radiolabeled by growth in the presence of ^35SO4^2− ([50]). Solubilized H^35S chains released from H^35SPGs by HPSE digestion can be resolved chromatographically, with HPSE inhibition leading to a corresponding loss of signal. […] We also tested inhibition of endogenous cellular HPSE using this assay format. […]
ECM coated 35 mm culture dishes containing 35S labelled HS were prepared as previously described (10). Briefly, bovine corneal endothelial cells were plated at an initial density of 2x10^5 cells/ml, with 4% dextran T-40 (Sigma) included in the growth medium. Na235SO4 (25 µCi/ml) was added to the incubation medium on days 2 and 5 after seeding. On day 12, subendothelial ECM is exposed by dissolving the cells with PBS containing 0.5% Triton X-100 and 20 mM NH4OH, followed by four washes with PBS.
For HS-degradation assays, ECM coated dishes were incubated with 200 ng recombinant HPSE in 1 mL reaction mixture (10 mM buffer Phosphate-Citrate pH 6.0, 50 mM NaCl, 1 mM DTT, 1 mM CaCl2) containing HPSE inhibitors or DMSO control. Plates were incubated at 37°C for 5 h, then assay medium collected and applied to a 0.9×30 cm Sepharose 6B size exclusion column. The Sepharose 6B column was eluted with PBS, and 35S radioactivity of 0.2 mL fractions quantitated using a liquid scintillation analyzer (Packard BioScience) (11). […]
Matrigel and […]
non-migrating cells in the upper side of the Boyden filter were removed by swabbing, then invading cells on the bottom side of the transwell filter imaged for analysis. […]
B16 melanoma - Twenty minutes before tumor cell inoculation, C57BL/J6 mice (n=5) were injected intraperitoneally with vehicle alone (PBS), compound 2 (300 nmol/mouse), or SST0001 (150 µg/mouse). Mice were subsequently intravenously inoculated with 1.5x105

4T1 breast cancer cells = assay: 4T1 murine mammary carcinoma lung metastasis model (luciferase imaging); type: in vivo, mouse; conditions: Balb/c mice, i.p. 300 nmol 2 or 150 μg SST0001, then i.v. 4T1-Luc cells with 2 nmol 2 or 10 μg SST0001; 14 d
Description: Since HPSE drives metastasis in multiple cancer types, we tested 2 against another metastasis model—4T1 murine mammary carcinoma, which also migrates to the lungs. Here, we were aided by a constitutive luciferase expressing 4T1 line, enabling real-time tracking of cancer growth by chemiluminescent imaging. Similar to the B16 model, mice were dosed i.p. with 300 nmol of 2 or 150 μg SST0001, followed by i.v. injection of 4T1-Luc cells alongside 2 nmol 2 or 10 μg SST0001.
B16-BL6 melanoma cells/mouse in a volume of 100 µL, alongside 20 µM 2 or 10 µg SST0001.
Mice were sacrificed after 14 days and the lungs were dissected, photographed and evaluated for the number of metastatic foci/lung. Plots and statistical analyses were carried out in Prism […]
Bioluminescence imaging of lung metastases produced by luciferase-expressing 4T1 cells was carried out using a highly sensitive, cooled charge-coupled device camera assembled in a specimen box (IVIS; Xenogen Corp, Hopkinton, MA). […] The tumor burden was quantified using Living Image software (Xenogen) (12, 13). […]
CAG myeloma - Luciferase-labeled CAG human myeloma cells (3x106) were injected into the tail vein of NOD/SCID mice. […] Tumor burden was quantified using Living Image software. […]

- IC50 (HPSE [1]): 460 nM and ~460 nM
- inhibition of recombinant HPSE-mediated H35SPG cleavage (HPSE [2]; 200 ng HPSE, pH 6.0, 37°C, 5 h): robust, dose-dependent inhibition
- level of inhibition of H35SPG cleavage relative to 4.6 μM 10 (HPSE [2]; 1 μM 2 or 3 compared to 4.6 μM 10): comparable levels of inhibition
Structure (SMILES): CC(=O)N[C@H]1[C@@H](O[C@H]2[C@H](O)[C@@H](O)[C@@H]3O[C@@H]3[C@@H]2C(=O)O)O[C@H](CO)[C@@H](O)[C@@H]1O [compound 2]
- lung metastases (bioluminescent flux) (4T1 breast cancer cells): marked reduction in lung metastases

— PMC9351465, “Mechanism-based heparanase inhibitors reduce cancer metastasis in vivo” (Proceedings of the National Academy of Sciences of the …, 2022)
